In patent publication US7598244B2, “[1,2,4]triazolo[1,5,a]pyrimidin-2-ylurea derivative and use thereof” (Nippon Kayaku Kabushiki Kaisha, priority 2003, dated 2009):

System: MHC class I molecules of T1 cells (human lymphoma cell line 174×CEM.)
Assay: Effect on expression of MHC class I from T1 cells (flow cytometry, MFI)
Type: cell-based
Details: 3 days culture
Method: Effect on Expression of MHC Class I from T1 Cells (Human Lymphoma Cell Line 174×CEM.)
Using a 96-well flat bottom microplate, T1 cells (5.7×10^3 cells/200 μl/well) were cultured in an RPMI 1640 medium (Iwaki Glass) containing 10% fetal bovine serum (hereinafter abbreviated as FBS; Iruvine Scientific) in an incubator containing 5% carbon dioxide at 37° C. for 3 days, in the presence of a test compound having each concentration obtained by dilution at a common ratio route of 10 from 400 μM. After completion of the culture, the cells were stained with fluoroisothiocyanate-labeled mouse anti-human MHC class I monoclonal antibody (an antibody produced from the cell line W6/32 (ATCC No. CRL 1991)). The mean fluorescence intensity of the stained cells (hereinafter referred to as MFI) was measured using flow cytometry FACScan (BD). The obtained value was defined as an expression level of MHC class I molecules. A test compound concentration necessary for suppressing 20% of the expression level of MHC class I molecules (EC20 value) was calculated using the following formula (1).
[formula] • Eexp: MFI of cultured cells containing test compound after being stained with antibody • Cexp: MFI of cultured cells containing no test compounds after being stained with antibody

Compound	EC20 (concentration necessary for suppressing 20% of the expression level of MHC class I molecules) [nM]
COc1ccc(-c2ccnc3nc(NC(=O)NCC(=O)OC(C)(C)C)nn23)cc1 [Example 110]	790
O=C(Nc1nc2nccc(-c3cccc(OCc4cccnc4)c3)n2n1)NC1CCCCC1 [Example 170]	250
COc1cccc([C@H](C)NC(=O)Nc2nc3nccc(-c4ccc(OCC5CCOCC5)cc4)n3n2)c1 [Example 322]	20
COc1cccc([C@H](C)NC(=O)Nc2nc3nccc(-c4ccc(N(C)C)cc4)n3n2)c1 [Example 232]	40
COc1ccc(-c2ccnc3nc(NC(=O)NC(C)c4cccc(OC(C)C)c4)nn23)cc1 (racemic) [Example 231]	50
COc1ccc(-c2ccnc3nc(NC(=O)NC(C)c4ccc5c(c4)OCO5)nn23)cc1 (stereo not drawn) [Example 297]	110
CC(C)CCC[C@H](C)NC(=O)Nc1nc2nccc(-c3ccc(OCc4ccccc4)cc3)n2n1 [Example 254]	230
COc1ccc(-c2ccnc3nc(NC(=O)NCc4ccc5c(c4)OCO5)nn23)cc1 [Example 215]	150
COCCOCOc1cccc(-c2ccnc3nc(NC(=O)N[C@@H](C)c4cccc(OC)c4)nn23)c1 [Example 213]	150
COc1ccc([C@H](C)NC(=O)Nc2nc3nccc(-c4cccc(OC)c4)n3n2)cc1 [Example 186]	440
COCC/C=C/[C@H](C)NC(=O)Nc1nc2nccc(-c3ccc(OC)cc3)n2n1 [Example 289]	110
COc1ccc(-c2ccnc3nc(NC(=O)N[C@H](C(=O)NCc4cccnc4)C(C)C)nn23)cc1 [Example 078]	670
CNC(=O)Nc1nc2nccc(-c3ccc(OC)cc3)n2n1 [Example 026]	900
COc1ccc(-c2ccnc3nc(NC(=O)NC(C)c4cccc(O)c4)nn23)cc1 (racemic) [Example 196]	170
COC(=O)C1CCCC(NC(=O)Nc2nc3nccc(-c4ccc(OC)cc4)n3n2)C1 (stereo not drawn) [Example 168]	670
COc1ccc(-c2ccnc3nc(NC(=O)N[C@@H](C)C(C)C)nn23)cc1 [Example 216]	160
COCCOc1cccc(-c2ccnc3nc(NC(=O)N[C@@H](C)CCCC(C)C)nn23)c1 [Example 264]	70
COC[C@H](C)NC(=O)Nc1nc2nccc(-c3ccc(OC)cc3)n2n1 [Example 237]	250
CC(CCCC(C)(C)O)NC(=O)Nc1nc2nccc(-c3cccs3)n2n1 (stereo not drawn) [Example 272, 1-(5-hydroxy-1,5-dimethylhexyl)-3-(7-thiophen-2-yl[1,2,4]triazolo[1,5-a]pyrimidin-2-yl)urea]	69
COc1ccc(-c2ccnc3nc(NC(=O)N[C@@H](C)C(=O)Nc4ccccc4)nn23)cc1 [Example 117]	190
COc1ccc(-c2ccnc3nc(NC(=O)N[C@@H](C)C(=O)NCC4CCCCC4)nn23)cc1 [Example 121]	170
O=C(Nc1nc2nccc(-c3cccs3)n2n1)NC1CCCC1 [Example 028]	152
C[C@H](NC(=O)Nc1nc2nccc(-c3cccc(O)c3)n2n1)c1cccc(O)c1 [Example 267]	550
C[C@H](NC(=O)Nc1nc2nccc(-c3ccc(O)cc3)n2n1)c1cccc(O)c1 [Example 266]	200
COCC[C@H](C)NC(=O)Nc1nc2nccc(-c3cccs3)n2n1 [Example 332]	760
CCCC(C)NC(=O)Nc1nc2nccc(-c3ccc(OCCOC)cc3)n2n1 (stereo not drawn) [Example 286]	160

Compound	EC20 (concentration necessary for suppressing 20% of the expression level of MHC class I molecules) [nM]
COc1ccc(-c2ccnc3nc(NC(=O)N[C@@H](C)C(=O)N4CCOCC4)nn23)cc1 [Example 118]	610
COc1ccc(-c2ccnc3nc(NC(=O)N[C@H](C(=O)O)C(C)C)nn23)cc1 [Example 054]	630
COc1cccc([C@H](C)NC(=O)Nc2nc3nccc(-c4ccc(OCCCN5CCOCC5)cc4)n3n2)c1 [Example 248]	14
COc1ccc(-c2ccnc3nc(NC(=O)NC(C)CCCN(C)C(C)=O)nn23)cc1 (stereo not drawn) [Example 283]	200
CCCCNC(=O)[C@@H](NC(=O)Nc1nc2nccc(-c3ccc(OC)cc3)n2n1)C(C)C [Example 091]	210
COc1cccc([C@H](C)NC(=O)Nc2nc3nccc(-c4ccc(OCC(=O)O)cc4)n3n2)c1 [Example 229]	690
CC(C)CCC[C@H](C)NC(=O)Nc1nc2nccc(-c3ccc(O)cc3)n2n1 [Example 255, (S)-1-(1,5-dimethylhexyl)-3-[7-(4-hydroxyphenyl)-[1,2,4]triazolo[1,5-a]pyrimidin-2-yl]urea]	5.6
COc1ccc(-c2ccnc3nc(NC(=O)NC(C)COCC4CCOCC4)nn23)cc1 (stereo not drawn) [Example 325]	70
COc1ccc(-c2ccnc3nc(NC(=O)NCCc4ccccn4)nn23)cc1 [Example 065]	350
CC(COCC1CCOCC1)NC(=O)Nc1nc2nccc(-c3ccc4c(c3)OCO4)n2n1 (stereo not drawn) [Example 335]	260
COc1ccc(-c2ccnc3nc(NC(=O)N[C@@H](C)C(=O)NCc4ccccn4)nn23)cc1 [Example 124]	210
COc1ccc(-c2ccnc3nc(NC(=O)NCCN4CCOCC4)nn23)cc1 [Example 064]	670
CC(CCC(C)(C)O)NC(=O)Nc1nc2nccc(-c3ccc4c(c3)OCO4)n2n1 (stereo not drawn) [Example 330]	210
O=C(NCc1ccccc1)Nc1nc2nccc(-c3cccc(O)c3)n2n1 [Example 025]	500
CC(C)CCC[C@H](C)NC(=O)Nc1nc2nccc(-c3ccc(OCCN4CCOCC4)cc3)n2n1.Cl [Example 258, (S)-1-(1,5-dimethylhexyl)-3-{7-[4-(2-morpholin-4-ylethoxy)phenyl]-[1,2,4]triazolo[1,5-a]pyrimidin-2-yl}urea hydrochloride]	8.7
COc1cccc([C@H](C)NC(=O)Nc2nc3nccc(-c4cccc(OCC(=O)N5CCOCC5)c4)n3n2)c1 [Example 253]	270
COc1ccc(-c2ccnc3nc(NC(=O)N[C@H](C(=O)NC4CCN(Cc5ccccc5)CC4)C(C)C)nn23)cc1 [Example 074]	550
COc1ccc(-c2ccnc3nc(NC(=O)NC(C)Cc4ccc(Cl)cc4)nn23)cc1 (racemic) [Example 142]	60
CC(CCC(C)(C)O)NC(=O)Nc1nc2nccc(-c3cccs3)n2n1 (stereo not drawn) [Example 318]	40
COCCOc1ccc(-c2ccnc3nc(NC(=O)N[C@@H](C)CCCC(C)C)nn23)cc1 [Example 262, (S)-1-(1,5-dimethylhexyl)-3-{7-[4-(2-methoxyethoxy)phenyl]-[1,2,4]triazolo[1,5-a]pyrimidin-2-yl}urea]	30
CC(C)NC(=O)Nc1nc2nccc(-c3cccc(OCCCc4ccccc4)c3)n2n1 [Example 194]	420
COCCOCCOCCOc1ccc(-c2ccnc3nc(NC(=O)N[C@@H](C)CCCC(C)C)nn23)cc1 [Example 263]	7.9
C[C@H](NC(=O)Nc1nc2nccc(-c3cccs3)n2n1)c1ccccc1 [Example 165]	300
COc1cccc([C@H](C)NC(=O)Nc2nc3nccc(-c4cccc(OCc5ccccn5)c4)n3n2)c1 [Example 201]	160
COc1cc(C(C)NC(=O)Nc2nc3nccc(-c4cccs4)n3n2)cc(OC)c1OC (stereo not drawn) [Example 294]	70
